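Following 48 hours of exposure in 96-well plates, responses at five concentrations were used to interpolate endpoints linearly. GI50: concentration for 50% inhibition of growth. TGI: total growth inhibition.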
Key:
Assay in all cases: NCI tumour cell line growth inhibition, 48 h
CCRF-CEM leukemia = system: CCRF-CEM leukemia
HCC-2998 colon = system: HCC-2998 colon
OVCAR-4 ovarian = system: OVCAR-4 ovarian
IGROV1 ovarian = system: IGROV1 ovarian
U251 CNS = system: U251 CNS
SNB-19 CNS = system: SNB-19 CNS
UO-31 renal = system: UO-31 renal
MDA-MB-231 breast = system: MDA-MB-231 breast
MCF7 breast = system: MCF7 breast
NCI-H226 lung = system: NCI-H226 lung
LOX IMVI melanoma = system: LOX IMVI melanoma
T-47D breast = system: T-47D breast
COLO 205 colon = system: COLO 205 colon
HT29 colon = system: HT29 colon
SNB-75 CNS = system: SNB-75 CNS
OVCAR-3 ovarian = system: OVCAR-3 ovarian
A498 renal = system: A498 renal
TK-10 renal = system: TK-10 renal
SF-268 CNS = system: SF-268 CNS
ACHN renal = system: ACHN renal
OVCAR-5 ovarian = system: OVCAR-5 ovarian
KM12 colon = system: KM12 colon
HOP-62 NSCLC = system: HOP-62 NSCLC
K-562 leukemia = system: K-562 leukemia
SN12C renal = system: SN12C renal
SW-620 colon = system: SW-620 colon
SK-MEL-28 melanoma = system: SK-MEL-28 melanoma
NCI/ADR-RES ovarian = system: NCI/ADR-RES ovarian

What does the source list for `c1ccc(CC(Cc2ccccc2)C2=NCCCN2)cc1`?
TGI (CCRF-CEM leukemia): 93.3 µM; GI50 (HCC-2998 colon): 3.08 µM; TGI (HCC-2998 colon): 9.35 µM; GI50 (OVCAR-4 ovarian): 3.93 µM; TGI (OVCAR-4 ovarian): > 100 µM; GI50 (IGROV1 ovarian): 4.2 µM; TGI (IGROV1 ovarian): > 100 µM; GI50 (U251 CNS): 3.38 µM; TGI (U251 CNS): > 100 µM; GI50 (SNB-19 CNS): 3.49 µM; TGI (SNB-19 CNS): > 100 µM; GI50 (UO-31 renal): 7.83 µM; TGI (UO-31 renal): > 100 µM; GI50 (MDA-MB-231 breast): 5.37 µM; TGI (MDA-MB-231 breast): > 100 µM; GI50 (MCF7 breast): 3.57 µM; TGI (MCF7 breast): > 100 µM; GI50 (NCI-H226 lung): 2.48 µM; TGI (NCI-H226 lung): 7.47 µM; GI50 (LOX IMVI melanoma): 3.71 µM; TGI (LOX IMVI melanoma): 23.6 µM; GI50 (T-47D breast): 30.8 µM; TGI (T-47D breast): > 100 µM; GI50 (COLO 205 colon): 3.49 µM; TGI (COLO 205 colon): 12.4 µM; GI50 (HT29 colon): 3.48 µM; TGI (HT29 colon): > 100 µM; GI50 (SNB-75 CNS): 7.8 µM; TGI (SNB-75 CNS): > 100 µM; GI50 (OVCAR-3 ovarian): 2.42 µM; TGI (OVCAR-3 ovarian): 4.97 µM; GI50 (A498 renal): 1.84 µM; TGI (A498 renal): 33.2 µM; GI50 (TK-10 renal): 7.57 µM; TGI (TK-10 renal): > 100 µM; GI50 (SF-268 CNS): 5.25 µM; TGI (SF-268 CNS): > 100 µM; GI50 (ACHN renal): 7.95 µM; TGI (ACHN renal): > 100 µM; GI50 (OVCAR-5 ovarian): 5.95 µM; TGI (OVCAR-5 ovarian): > 100 µM; GI50 (KM12 colon): 3.26 µM; TGI (KM12 colon): > 100 µM; GI50 (HOP-62 NSCLC): 4.83 µM; TGI (HOP-62 NSCLC): > 100 µM; GI50 (K-562 leukemia): 4.04 µM; TGI (K-562 leukemia): > 100 µM; GI50 (SN12C renal): 4.18 µM; TGI (SN12C renal): > 100 µM; GI50 (SW-620 colon): 3.94 µM; TGI (SW-620 colon): > 100 µM; GI50 (SK-MEL-28 melanoma): 6.4 µM; TGI (SK-MEL-28 melanoma): > 100 µM; GI50 (NCI/ADR-RES ovarian): 2.99 µM; TGI (NCI/ADR-RES ovarian): > 100 µM
